In brackets after ≈: the same amount, converted by molar mass.
How the values were obtained:
Streptococcus pneumoniae = experiment: Antibacterial activity against Streptococcus pneumoniae SV1 SP3 by micro-broth method; format: functional
Haemophilus influenzae = experiment: Antibacterial activity against Heamophilus influenzae HI3542 by microbroth method; format: functional
Staphylococcus aureus = experiment: Antibacterial activity against Staphylococcus aureus UC76 SA1 by micro-broth method; format: functional
Moraxella catarrhalis = experiment: Antibacterial activity against Moraxella catarrhalis BC-3531 by micro-broth method; format: functional
Escherichia coli = experiment: Inhibition of transcription and translation activity in Escherichia coli by luciferase reporter assay; format: functional, organism-based
Streptococcus pyogenes = experiment: Antibacterial activity against Streptococcus pyogenes C203 SP1-1 by micro-broth method; format: functional
Enterococcus faecalis = experiment: Antibacterial activity against Enterococcus faecalis MG2 EF1 by micro-broth method; format: functional

SMILES	MIC (Streptococcus pneumoniae) [µg/mL]	MIC (Haemophilus influenzae) [µg/mL]	MIC (Staphylococcus aureus) [µg/mL]	MIC (Moraxella catarrhalis) [µg/mL]	IC50 (Escherichia coli) [nM]	MIC (Streptococcus pyogenes) [µg/mL]	MIC (Enterococcus faecalis) [µg/mL]
CCc1n[nH]c2c1CCCc1cc(N3C[C@H](CNC(C)=O)OC3=O)ccc1-2	0.125 (≈ 0.339 µM)	4 (≈ 10.9 µM)	0.5 (≈ 1.36 µM)	1 (≈ 2.71 µM)	1100	0.125 (≈ 0.339 µM)	0.25 (≈ 0.679 µM)
CC(=O)NC[C@H]1CN(c2ccc3c(c2)CCCc2c(C(C)C)n[nH]c2-3)C(=O)O1	0.5 (≈ 1.31 µM)	16 (≈ 41.8 µM)	2 (≈ 5.23 µM)	8 (≈ 20.9 µM)	4300	1 (≈ 2.61 µM)	2 (≈ 5.23 µM)

More lines, now with the values ahead:

MIC (Streptococcus pneumoniae) [µg/mL]	MIC (Haemophilus influenzae) [µg/mL]	MIC (Staphylococcus aureus) [µg/mL]	MIC (Moraxella catarrhalis) [µg/mL]	IC50 (Escherichia coli) [nM]	MIC (Streptococcus pyogenes) [µg/mL]	MIC (Enterococcus faecalis) [µg/mL]	SMILES
0.5 (≈ 1.41 µM)	4 (≈ 11.3 µM)	1 (≈ 2.82 µM)	4 (≈ 11.3 µM)	1200	0.5 (≈ 1.41 µM)	1 (≈ 2.82 µM)	CC(=O)NC[C@H]1CN(c2ccc3c(c2)CCCc2c(C)n[nH]c2-3)C(=O)O1
0.5 (≈ 1.31 µM)	16 (≈ 41.8 µM)	2 (≈ 5.23 µM)	4 (≈ 10.5 µM)	3100	0.5 (≈ 1.31 µM)	1 (≈ 2.61 µM)	CCCc1n[nH]c2c1CCCc1cc(N3C[C@H](CNC(C)=O)OC3=O)ccc1-2
0.25 (≈ 0.612 µM)	4 (≈ 9.79 µM)	1 (≈ 2.45 µM)	1 (≈ 2.45 µM)	1300	1 (≈ 2.45 µM)	1 (≈ 2.45 µM)	CC(=O)NC[C@H]1CN(c2ccc3c(c2)CCCc2c(C(F)(F)F)n[nH]c2-3)C(=O)O1
